# Source: patent US20070231260A1, “Transporter-targeted methods of diagnosis and treatment” (priority 2005, published 2007)
# Tested on: cells that overexpress MCT1
# Test: Cytotoxicity (GI50) of bromopyruvate in cells not expressing MCT1 (-TET) and induced to express MCT1 (+TET)
# Format: cell-based
# Details: GI50, +TET vs -TET cells; FIG. 2
structure (smiles),measurement,value
"O=C(O)C(=O)CBr [bromopyruvate, Bromopyruvate]",fold higher toxicity to cells that overexpress MCT1,more than 20 times
